Data reported in patent publication US7473790B2 (Pfizer Inc., priority 2003, dated 2009).
pIC50: −log10 of the molar value.

Target: T1, HCV polymerase (Hepatitis C virus genotype 1b, UniProt P26663)
T1 construct: 2.5 pmoles (0.15 μg) HCV polymerase protein in a final volume of 75 μL
Assay: HCV polymerase primer/template-directed transcription assay (32P-GTP incorporation, filter binding)
Type: biochemical
Conditions: for pIC50: recombinant HCV polymerase, 30 minutes at 30° C., concentration giving 50% inhibition of polymerase-directed transcription, read-out: IC50; for inhibition at 50 µM: @ 50 uM compound
Outline: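 IC50s come from triplicate cpm, refit with an enzyme-concentration (30 nM) correction when under 200 nM. Reactions ran 30 min at 30° C in Tris pH 7.2 with MgCl2, 1 μM GTP spiked with α-32P-GTP, biotin-dG12 primer and poly(rC)300 template, with 1% DMSO. Incorporated label was collected on DE filtermats and counted.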

[1] = given where IC50 was impractical to calculate, read-out: percent inhibition

T1 sequence (P26663 2420-3010): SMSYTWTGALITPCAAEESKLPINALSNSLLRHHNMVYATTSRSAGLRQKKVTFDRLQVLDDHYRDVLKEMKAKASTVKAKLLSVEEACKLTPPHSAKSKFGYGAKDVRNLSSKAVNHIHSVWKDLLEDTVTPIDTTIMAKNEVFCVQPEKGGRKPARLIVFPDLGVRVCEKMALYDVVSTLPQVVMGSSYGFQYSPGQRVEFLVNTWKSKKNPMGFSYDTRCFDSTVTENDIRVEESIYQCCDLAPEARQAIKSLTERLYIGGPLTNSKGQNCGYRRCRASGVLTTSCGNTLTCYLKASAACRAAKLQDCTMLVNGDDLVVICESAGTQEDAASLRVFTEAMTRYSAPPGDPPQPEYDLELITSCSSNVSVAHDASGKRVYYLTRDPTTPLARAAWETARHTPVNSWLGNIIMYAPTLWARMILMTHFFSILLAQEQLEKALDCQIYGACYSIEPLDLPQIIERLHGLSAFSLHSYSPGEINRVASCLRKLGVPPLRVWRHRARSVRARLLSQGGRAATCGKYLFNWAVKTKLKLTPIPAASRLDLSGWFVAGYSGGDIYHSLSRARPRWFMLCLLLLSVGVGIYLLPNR

**Q.** How did the pIC50 turn out when `COc1cc(OC)c(CCC2(C3CCCC3)CC(O)=C(Cc3nc(C)nn3C)C(=O)O2)cc1Cl` (stereo not shown) [B(71), 6-[2-(5-Chloro-2,4-dimethoxyphenyl)ethyl]-6-cyclopentyl-3-[(1,3-dimethyl-1H-1,2,4-triazol-5-yl)methyl]-4-hydroxy-5,6-dihydro-2H-pyran-2-one] was run?
**A.** The pIC50 was 7.10.

**Q.** With `COc1ccc(CCC2(C3CCCC3)CC(O)=C(Cc3ccc(S(C)(=O)=O)cc3)C(=O)O2)cc1Cl` (stereo not shown) [B(21), 6-[2-(3-Chloro-4-methoxy-phenyl)-ethyl]-6-cyclopentyl-4-hydroxy-3-(4-methanesulfonyl-benzyl)-5,6-dihydro-pyran-2-one] as the molecule, how does the pIC50 read?
**A.** The pIC50 was 6.40.

**Q.** `COc1ccc(CCC2(C3CCCC3)CC(O)=C(Sc3nc4cc(Cl)ccc4n3C)C(=O)O2)cc1Cl` (stereo not shown) [C(57), 6-[2-(3-chloro-4-methoxyphenyl)ethyl]-3-[(5-chloro-1-methyl-1H-benzimidazol-2-yl)thio]-6-cyclopentyl-4-hydroxy-5,6-dihydro-2H-pyran-2-one] was tested. Which pIC50 did it give?
**A.** Its pIC50 is 8.70.

**Q.** With `COCc1ccc(CCC2(C3CCCC3)CC(=O)CC(=O)O2)cc1F` (stereo not shown) [A(08), 6-Cyclopentyl-6-[2-(3-fluoro-4-methoxymethyl-phenyl)-ethyl]-dihydro-pyran-2,4-dione] as the molecule, how does the pIC50 read?
**A.** Its pIC50 is 5.22.

**Q.** With `Cc1cc(C)n2nc(CC3=C(O)CC(CCc4ccc(OC(C)C)c(C)c4)(C4CCCC4)OC3=O)nc2n1` (stereo not shown) [B(11), 6-Cyclopentyl-3-(5,7-dimethyl-[1,2,4]triazolo[1,5]pyrimidin-2-ylmethyl)-4-hydroxy-6-[2-(4-isopropoxy-3-methyl-phenyl)-ethyl]-5,6-dihydro-pyran-2-one] as the molecule, how does the pIC50 read?
**A.** Its pIC50 is 7.72.

**Q.** How did the pIC50 turn out when `CCCc1cc(CCC2(C3CCCC3)CC(=O)CC(=O)O2)ccc1O` (stereo not shown) [A(90), 6-cyclopentyl-6-[2-(4-hydroxy-3-propylphenyl)ethyl]dihydro-2H-pyran-2,4(3H)-dione] was run?
**A.** Its pIC50 is 6.11.

**Q.** `CCc1ccc(OCCOC)c(CCC2(C3CCCC3)CC(O)=C(Cc3nc4ncc(C)cn4n3)C(=O)O2)c1` (stereo not shown) [A(179), 6-Cyclopentyl-6-{2-[5-ethyl-2-(2-methoxy-ethoxy)-phenyl]-ethyl}-4-hydroxy-3-(6-methyl-[1,2,4]triazolo[1,5-a]pyrimidin-2-ylmethyl)-5,6-dihydro-pyran-2-one] was tested. Which pIC50 did it give?
**A.** The pIC50 was 8.30.

**Q.** `Cc1cnc2nc(CC3C(=O)CC(CCc4ccc(C(C)(C)C#N)c(F)c4)(C4CCCC4)OC3=O)nn2c1` (single isomer, unassigned; (+)) [A(109), (+)-2-(4-{2-[2-Cyclopentyl-5-(6-methyl-[1,2,4]triazolo[1,5-a]pyrimidin-2-ylmethyl)-4,6-dioxo-tetrahydro-pyran-2-yl]-ethyl}-2-fluoro-phenyl)-2-methyl-propionitrile] was tested. Which pIC50 did it give?
**A.** Its pIC50 is 8.40.

**Q.** How did the pIC50 turn out when `CC1(c2ccc(CCC3(C4CCCC4)CC(=O)CC(=O)O3)cc2)CCC(=O)O1` (stereo not shown) [A(29), 6-Cyclopentyl-6-{2-[4-(2-methyl-5-oxo-tetrahydro-furan-2-yl)-phenyl]-ethyl}-dihydro-pyran-2,4-dione] was run?
**A.** Its pIC50 is 5.82.

**Q.** `CCC1(C)CC(O)=C(Sc2nc3cc(Cl)ccc3n2C(C)C)C(=O)O1` (stereo not shown) [C(20), 3-(5-Chloro-1-isopropyl-1H-benzoimidazol-2-ylsulfanyl)-6-ethyl-4-hydroxy-6-methyl-5,6-dihydro-pyran-2-one] was tested. Which inhibition at 50 µM [1] did it give?
**A.** The inhibition at 50 µM was 11%.

**Q.** `COc1ccc(CCC2(C3CCCC3)CC(O)=C(Cc3cccc(C#N)c3)C(=O)O2)cc1Cl` (stereo not shown) [B(23), 3-{6-[2-(3-Chloro-4-methoxy-phenyl)-ethyl]-6-cyclopentyl-4-hydroxy-2-oxo-5,6-dihydro-2-pyran-3-ylmethyl}-benzonitrile] was tested. Which pIC50 did it give?
**A.** The pIC50 was 6.06.

**Q.** With `N#Cc1cccc(-c2ccc(CCC3(C4CCCC4)CC(=O)CC(=O)O3)cc2)c1` (stereo not shown) [A(45), 4′-[2-(2-Cyclopentyl-4,6-dioxo-tetrahydro-pyran-2-yl)-ethyl]-biphenyl-3-carbonitrile] as the molecule, how does the pIC50 read?
**A.** Its pIC50 is 4.52.

**Q.** For `CCC1(CCc2ccc(OC)cc2)CC(O)=C(Sc2nc3cc(Cl)ccc3n2C(C)C)C(=O)O1` (stereo not shown) [C(15), 3-(5-Chloro-1-isopropyl-1H-benzoimidazol-2-ylsulfanyl)-6-ethyl-4-hydroxy-6-[2-(4-methoxy-phenyl)-ethyl]-5,6-dihydro-pyran-2-one], which inhibition at 20 µM (@ 20 uM compound, given where IC50 was impractical to calculate, read-out: percent inhibition) is on record?
**A.** Its inhibition at 20 µM is 22%.

**Q.** `CC(C)(C#N)c1ccc(CCC2(C3CCCC3)CC(O)=C(Cc3cc[nH]c(=O)c3)C(=O)O2)cc1F` (stereo not shown) [A(99), 2-[4-(2-{2-cyclopentyl-4-hydroxy-6-oxo-5-[(2-oxo-1,2-dihydropyridin-4-yl)methyl]-3,6-dihydro-2H-pyran-2-yl}ethyl)-2-fluorophenyl]-2-methylpropanenitrile] was tested. Which pIC50 did it give?
**A.** The pIC50 was 7.77.

**Q.** With `CCc1cccc(CCC2(C3CCCC3)CC(=O)CC(=O)O2)c1` (single isomer, unassigned) [J(6), 6-Cyclopentyl-6-[2-(3-ethyl-phenyl)-ethyl]-dihydro-pyran-2,4-dione] as the molecule, how does the pIC50 read?
**A.** Its pIC50 is 5.92.

**Q.** `COc1cc(OC)c(CCC2(C3CCCC3)CC(O)=C(Cc3nn(C)cc3Cl)C(=O)O2)cc1Cl` (stereo not shown) [B(32), 6-[2-(5-Chloro-2,4-dimethoxy-phenyl)-ethyl]-3-(4-chloro-1-methyl-1H-pyrazol-3-ylmethyl)-6-cyclopentyl-4-hydroxy-5,6-dihydro-pyran-2-one] was tested. Which pIC50 did it give?
**A.** The pIC50 was 7.15.

**Q.** How did the pIC50 turn out when `CCc1cc(CCC2(C3CCCC3)CC(O)=C(Cc3nc4ncccn4n3)C(=O)O2)cc(CC)c1O` (stereo not shown) [A(234), 6-cyclopentyl-6-[2-(3,5-diethyl-4-hydroxyphenyl)ethyl]-4-hydroxy-3-([1,2,4]triazolo[1,5-a]pyrimidin-2-ylmethyl)-5,6-dihydro-2H-pyran-2-one] was run?
**A.** The pIC50 was 7.96.

**Q.** `COc1ccc(CCC2(C3CCCC3)CC(O)=C(Cc3ccc(C#N)cc3)C(=O)O2)cc1Cl` (stereo not shown) [B(22), 4-{6-[2-(3-Chloro-4-methoxy-phenyl)-ethyl]-6-cyclopentyl-4-hydroxy-2-oxo-5,6-dihydro-2-pyran-3-ylmethyl}-benzonitrile] was tested. Which pIC50 did it give?
**A.** Its pIC50 is 5.92.

**Q.** How did the pIC50 turn out when `COc1ccc(CCC2(C3CCCC3)CC(=O)CC(=O)O2)cc1[C@@H](C)O` (stereo partly shown) [B(121), 6-Cyclopentyl-6-{2-[3-(1-hydroxy-ethyl)-4-methoxy-phenyl]-ethyl}-dihydro-pyran-2,4-dione] was run?
**A.** The pIC50 was 5.22.

**Q.** How did the pIC50 turn out when `Cc1cc(C)n2nc(CC3=C(O)CC(CCc4ccc([C@@H](C)O)cc4)(C4CCCC4)OC3=O)nc2n1` (stereo partly shown) [B(112), 6-Cyclopentyl-3-(5,7-dimethyl-[1,2,4]triazolo[1,5-a]pyrimidin-2-ylmethyl)-4-hydroxy-6-{2-[4-(1-hydroxy-ethyl)-phenyl]-ethyl}-5,6-dihydro-pyran-2-one] was run?
**A.** Its pIC50 is 7.01.

**Q.** How did the pIC50 turn out when `Cc1cc(C(=O)N[C@H](C)c2ccc(CCC3(C4CCCC4)CC(=O)CC(=O)O3)cc2)no1` (stereo partly shown) [A(43), 5-Methyl-isoxazole-3-carboxylic acid (1-{4-[2-(2-cyclopentyl-4,6-dioxo-tetrahydro-pyran-2-yl)-ethyl]-phenyl}-ethyl)-amide] was run?
**A.** Its pIC50 is 4.70.

**Q.** Which inhibition at 50 µM [1] does the source give for `CCC1(CCc2ccc(OC)cc2)CC(=O)CC(=O)O1` (stereo not shown) [A(23), 6-Ethyl-6-[2-(4-methoxy-phenyl)-ethyl]-dihydro-pyran-2,4-dione] here?
**A.** Its inhibition at 50 µM is 1%.

**Q.** How did the pIC50 turn out when `C[C@@H](O)c1ccc(CCC2(C3CCCC3)CC(O)=C(Cc3nc4ncc(Cl)cn4n3)C(=O)O2)cc1F` (stereo in doubt) [B(116), 3-(6-Chloro-[1,2,4]triazolo[1,5-a]pyrimidin-2-ylmethyl)-6-cyclopentyl-6-{2-[3-fluoro-4-(1-hydroxy-ethyl)-phenyl]-ethyl}-4-hydroxy-5,6-dihydro-pyran-2-one] was run?
**A.** The pIC50 was 7.96.

**Q.** With `CCOc1ccc(CCC2(C3CCCC3)CC(O)=C(Cc3nc4nc(C)cc(C)n4n3)C(=O)O2)cc1C` (stereo not shown) [B(10), 6-Cyclopentyl-3-(5,7-dimethyl-[1,2,4]triazolo[1,5]pyrimidin-2-ylmethyl)-6-[2-(4-ethoxy-3-methyl-phenyl)-ethyl]-4-hydroxy-5,6-dihydro-pyran-2-one] as the molecule, how does the pIC50 read?
**A.** Its pIC50 is 7.28.

**Q.** How did the pIC50 turn out when `C[C@@H](O)c1ccc(CCC2(C3CCCC3)CC(=O)CC(=O)O2)cc1F` (stereo partly shown) [B(115), 6-Cyclopentyl-6-{2-[3-fluoro-4-(1-hydroxy-ethyl)-phenyl]-ethyl}-dihydro-pyran-2,4-dione] was run?
**A.** The pIC50 was 5.48.

**Q.** How did the pIC50 turn out when `COc1ccc(CCC2(C3CCCC3)CC(O)=C(Cc3nc4ncc(C)cn4n3)C(=O)O2)c(OC)c1` (stereo not shown) [B(118), 6-Cyclopentyl-6-[2-(2,4-dimethoxy-phenyl)-ethyl]-4-hydroxy-3-(6-methyl-[1,2,4]triazolo[1,5-a]pyrimidin-2-ylmethyl)-5,6-dihydro-pyran-2-one] was run?
**A.** The pIC50 was 6.70.

**Q.** With `CCc1ccc(O)c(CCC2(C3CCCC3)CC(O)=C(Cc3nc4ncc(C)cn4n3)C(=O)O2)c1` (stereo not shown) [A(173), 6-Cyclopentyl-6-[2-(5-ethyl-2-hydroxy-phenyl)-ethyl]-4-hydroxy-3-(6-methyl-[1,2,4]triazolo[1,5-a]pyrimidin-2-ylmethyl)-5,6-dihydro-pyran-2-one] as the molecule, how does the pIC50 read?
**A.** The pIC50 was 8.40.

**Q.** `CCc1cc(CCC2(C3CCCC3)CC(O)=C(Cc3nc4ncc(Cl)cn4n3)C(=O)O2)ccn1` (stereo not shown) [A(164), 3-(6-Chloro-[1,2,4]triazolo[1,5-a]pyrimidin-2-ylmethyl)-6-cyclopentyl-6-[2-(2-ethyl-pyridin-4-yl)-ethyl]-4-hydroxy-5,6-dihydro-pyran-2-one] was tested. Which pIC50 did it give?
**A.** Its pIC50 is 7.38.

**Q.** `Cc1cc(C)n2nc(CC3=C(O)CC(CCc4ccc(C5(C#N)CC5)c(Cl)c4)(C4CCCC4)OC3=O)nc2n1` (stereo not shown) [A(148), 1-(2-Chloro-4-{2-[2-cyclopentyl-5-(5,7-dimethyl-[1,2,4]triazolo[1,5-a]pyrimidin-2-ylmethyl)-4-hydroxy-6-oxo-3,6-dihydro-2H-pyran-2-yl]-ethyl}-phenyl)-cyclopropanecarbonitrile] was tested. Which pIC50 did it give?
**A.** The pIC50 was 8.30.

**Q.** `COc1cc(OC)c(CCC2(C3CCCC3)CC(O)=C(Sc3n[nH]c(-c4ccccc4)n3)C(=O)O2)cc1Cl` (stereo not shown) [C(71), 6-[2-(5-Chloro-2,4-dimethoxyphenyl)ethyl]-6-cyclopentyl-4-hydroxy-3-[(5-phenyl-1H-1,2,4-triazol-3-yl)thio]-5,6-dihydro-2H-pyran-2-one] was tested. Which pIC50 did it give?
**A.** Its pIC50 is 7.24.

**Q.** `CC(C)c1ccc(CCC2(C3CCCC3)CC(=O)CC(=O)O2)cc1F` (stereo not shown) [A(64), 6-cyclopentyl-6-[2-(3-fluoro-4-isopropylphenyl)ethyl]dihydro-2H-pyran-2,4(3H)-dione] was tested. Which pIC50 did it give?
**A.** Its pIC50 is 5.40.
